The values below come from US10149876B2, “Tripterygium wilfordii extracts to overcome chemotherapy resistance” (WESTERN UNIVERSITY OF HEALTH SCIENCES, priority 2012, dated 2018).

Molecules are shown by their SMILES.

The subject of the test is K562/Dox cells. The test is described as follows: SRB cell viability assay, daunorubicin-resistant K562/Dox cells. The test is classed as cell-based, human. The following applies: 72 h, background = 0.043.

Regarding `CC(=O)O[C@@]12CO[C@@H]1C[C@H](O)[C@@]1(C)C(=O)[C@H](O)C3=C(C)[C@@H](OC(=O)[C@H](O)[C@@H](NC(=O)OC(C)(C)C)c4ccccc4)C[C@@](O)([C@@H](OC(=O)c4ccccc4)[C@H]21)C3(C)C` [Docetaxel, docetaxel], the “mean A at 565 nm” value reads like this: (Docetaxel 0.001 nM (so in the source), no LGT-E pre-treatment) 2.771; (Docetaxel 0.001 nM (so in the source), pre-treated with 25 μg/ml LGT-E) 2.747; (Docetaxel 0.1 nM (so in the source), no LGT-E pre-treatment) 2.933; (Docetaxel 0.1 nM (so in the source), pre-treated with 25 μg/ml LGT-E) 2.848; (Docetaxel 0.333 nM (so in the source), no LGT-E pre-treatment) 2.960; (Docetaxel 0.333 nM (so in the source), pre-treated with 25 μg/ml LGT-E) 2.811. Besides, the “mean A at 565 nm” value (Docetaxel 1 nM (so in the source), no LGT-E pre-treatment) was found to be 2.509; the “mean A at 565 nm” value (Docetaxel 1 nM (so in the source), pre-treated with 25 μg/ml LGT-E) is 2.706; the “mean A at 565 nm” value (Docetaxel 3.33 nM (so in the source), no LGT-E pre-treatment) is 2.848; the “mean A at 565 nm” value (Docetaxel 3.33 nM (so in the source), pre-treated with 25 μg/ml LGT-E) was determined as 2.300; the “mean A at 565 nm” value (Docetaxel 10 nM (so in the source), no LGT-E pre-treatment) is recorded as 2.716; the “mean A at 565 nm” value (Docetaxel 10 nM (so in the source), pre-treated with 25 μg/ml LGT-E) is on record as 1.259. For the same compound, the “mean A at 565 nm” value is reported as 1.175 (Docetaxel 33.3 nM (so in the source), pre-treated with 25 μg/ml LGT-E); 0.723 (Docetaxel 100 nM (so in the source), no LGT-E pre-treatment); 0.510 (Docetaxel 100 nM (so in the source), pre-treated with 25 μg/ml LGT-E).
